Assay results: US20240199647A1, “ANTI-VIRAL COMPOUNDS” (Aligos Therapeutics, Inc., priority 2022, published 2024)
Read-outs that look alike come from different tables or passages of the source.

Assays:
[1] = molecular target: SARS-Cov-2 3CLpro (Severe acute respiratory syndrome coronavirus 2, UniProt P0DTD1); assay: biochemical; conditions: Table A, class symbols
[2] = tested on: SARS-CoV-2 B.1.1.7 lineage; assay: microbe, parasite or virus in culture; format: cell-based; conditions: Table C, SARS-CoV-2 B.1.1.7 in A549-dual_ACE2_TMPRSS2 cells, read-out: A549-dual_ACE2_TMPRSS2 (EC50)
[3] = tested on: human beta-coronavirus OC43; assay: OC43 Coronavirus Assay in HeLa cells (antiviral, cytopathic effect, cell-titer-glo); format: cell-based; conditions: Table B, OC43 coronavirus in HeLa cells, read-out: EC50
[4] = tested on: A549-dual_ACE2_TMPRSS2 cells; assay: Toxicity testing in A549-dual_ACE2_TMPRSS2 cells without virus (MTS); conditions: read-out: A549-dual_ACE2_TMPRSS2 (CC50); Table C; A549-dual_ACE2_TMPRSS2 cells without virus, class symbols
[5] = tested on: HeLa human cervical epithelial cells; assay: Cytotoxicity in HeLa cells without addition of OC43 virus (in parallel); conditions: Table B; HeLa cells without OC43 virus, class symbols
[6] = tested on: A549-dual_ACE2_TMPRSS2 cells; conditions: human
[7] = Toxicity testing in A549-dual_ACE2_TMPRSS2 cells without virus (MTS); conditions: human
[8] = Cytotoxicity in HeLa cells without addition of OC43 virus (in parallel); conditions: human, HeLa cells, without OC43 virus

Structure (SMILES)	IC50 ([1]; read-out: SARS-Cov-2 (IC50))	CC50 [5]	EC50 ([3]; class symbols)	EC50 ([2]; class symbols)	CC50 [6]	other results
Cc1nnn(C(CC2CC2)C(=O)N(C)[C@@H](CC2CC2)C(=O)N2C[C@@]3(C[C@H]2C#N)Oc2cc(F)cc(F)c2NC3=O)c1C (relative stereo) [Compound 118, ((R*)—N—((S)-1-((2R,5'S)-5′-cyano-5,7-difluoro-3-oxo-3,4-dihydrospiro[benzo[b][1,4]oxazine-2,3′-pyrrolidin]-1′-yl)-3-cyclopropyl-1-oxopropan-2-yl)-3-cyclopropyl-2-(4,5-dimethyl-1H-1,2,3-triazol-1-yl)-N-methylpropanamide]	0.2 to 2 µM	> 10 µM				EC50 ([2]; cells given as a bound): > 1 µM; EC50 ([3]; cells given as a bound): > 10 µM; CC50 [4]: > 1 µM
CC1NC(=O)[C@]2(C[C@@H](C#N)N(C(=O)[C@H](CC3CC3)N(C)C(=O)[C@H](CC3CC3)NC(=O)C(F)(F)F)C2)Oc2ccccc21 (single isomer, unassigned) [Compound 224, (S)—N—((S)-1-((2R,5R*,5'S)-5′-cyano-5-methyl-3-oxo-4,5-dihydro-3H-spiro[benzo[f][1,4]oxazepine-2,3′-pyrrolidin]-1′-yl)-3-cyclopropyl-1-oxopropan-2-yl)-3-cyclopropyl-N-methyl-2-(2,2,2-trifluoroacetamido)propanamide]	< 0.02 µM	> 10 µM	< 0.1 µM			
C[C@H](NC(=O)C(F)(F)F)C(=O)N(C)[C@@H](CC1CC1)C(=O)N1C[C@]2(C[C@H]1C#N)C(=O)NCC2Oc1ccccc1 (some centres unmarked) [Compound 94]	0.02 to 0.2 µM	> 10 µM		0.1 to 1 µM	> 1 µM	EC50 ([3]; Betacoronavirus 1, OC43, HeLa, cells given as a bound): > 10 µM
C[C@H](NC(=O)Oc1ccc(F)cc1)C(=O)N(C)[C@@H](CC1CC1)C(=O)N1C[C@@]2(C[C@H]1C#N)Oc1cc(F)cc(F)c1NC2=O [Compound 119, 4-fluorophenyl ((S)-1-(((S)-1-((2R,5'S)-5′-cyano-5,7-difluoro-3-oxo-3,4-dihydrospiro[benzo[b][1,4]oxazine-2,3′-pyrrolidin]-1′-yl)-3-cyclopropyl-1-oxopropan-2-yl)(methyl)amino)-1-oxopropan-2-yl)carbamate]						IC50 ([1]; SARS-Cov-2 (IC50)): < 0.02 µM; EC50 ([2]; Severe acute respiratory syndrome coronavirus 2, cells given as a bound): > 1 µM; EC50 ([3]; Betacoronavirus 1, class symbols): 0.1 to 1 µM; CC50 [7]: > 1 µM; CC50 at 6 days [8]: > 10 µM
CN(C(=O)[C@H](CC(C)(C)C)NC(=O)C(F)(F)F)[C@@H](CC1CC1)C(=O)N1C[C@@]2(C[C@H]1C#N)Oc1cccnc1NC2=O [Compound 233]	< 0.02 µM	> 10 µM	0.1 to 1 µM	< 0.1 µM	> 1 µM	
